≈ marks a conversion by molar mass, not a printed value. Where two headings read alike, the source gives them in different places.
Columns and labels:
P. aeruginosa ATCC 27853 [1] = test: MIC assay, CLSI broth microdilution, P. aeruginosa ATCC 27853 (APAE001); format: cell-based; details: Pseudomonas aeruginosa
Summary of the method: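 CLSI M7-A7 broth microdilution; 2-fold serial dilutions in Mueller Hinton Broth, 1:1 with inoculum; final 5×10^5 CFU/mL; 35° C., 20 h, ambient air. QC strains E. coli ATCC 25922, P. aeruginosa ATCC 27853, S. aureus ATCC 29213.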

E. coli ATCC 25922 = test: MIC assay, CLSI broth microdilution, E. coli ATCC 25922 (AECO001); format: cell-based; details: Escherichia coli, read-out: MIC AECO001
Summary of the method: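 Bacteria from overnight agar colonies, suspended in saline, added to serial two-fold dilutions in Mueller Hinton Broth at 5×10^5 CFU/mL final. Incubation 35° C., 20 hours, ambient air, per CLSI M7-A7 reference method.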

P. aeruginosa ATCC 27853 [2] = test: murine septicemia model of infection, P. aeruginosa; format: in vivo; details: mice inoculated IP, single SC or IV dose 1 hour after challenge, mortality 7 days; ED50 values are mg/kg
Description: Two models were run on each compound, using E. coli and P. aeruginosa QC bacterial strains. Both studies employed the same design. […] At 1 hour after bacterial challenge, the mice received a single SC or IV […] dose of vehicle or test substance to assess in vivo anti-infective activity. Mortality was recorded once daily for 7 days after bacterial inoculation.

[3] = ATCC27853, Table 2, read-out: MIC P. aeruginosa
[4] = APAE001 is ATCC27853, 35° C., 20 hours, read-out: MIC APAE001
[5] = AECO001 is ATCC25922, 35° C., 20 hours
[6] = ATCC27853, 20 h, read-out: MIC APAE001

Compound	MIC (P. aeruginosa ATCC 27853 [1]; [3])	MIC (P. aeruginosa ATCC 27853 [1]; [4])	MIC (E. coli ATCC 25922; [5])	ED50/MIC P. aeruginosa (P. aeruginosa ATCC 27853 [2])	MIC (P. aeruginosa ATCC 27853 [1]; [6])	MIC (E. coli ATCC 25922; ATCC25922, 20 h)
CN[C@@H]1[C@@H](O)[C@@H](O[C@@H]2[C@@H](O)[C@H](O[C@H]3OC(CNCC4CCNCC4)=CC[C@H]3N)[C@@H](N)C[C@H]2NC(=O)[C@@H](O)CN)OC[C@]1(C)O [Example 15, 6′-(Methyl-piperidin-4-yl)-1-(3-amino-2(S)-hydroxy-propionyl)-sisomicin]	1 to 16 µg/mL (≈ 1.58 to 25.3 µM)	1 to 16 µg/mL (≈ 1.58 to 25.3 µM)	< 1 µg/mL	1	–	–
CN[C@@H]1[C@@H](O)[C@@H](O[C@@H]2[C@@H](O)[C@H](O[C@H]3OC(CN)=CC[C@H]3NCC3CCNC3)[C@@H](N)C[C@H]2NC(=O)[C@@H](O)CCN)OC[C@]1(C)O (stereo partly drawn) [Example 84, 2′-(Methyl-pyrrolidin-3-yl)-1-(4-amino-2(S)-hydroxy-butyryl)-sisomicin]	–	–	–	–	1 to 16 µg/mL (≈ 1.58 to 25.3 µM)	< 1 µg/mL
CN[C@@H]1[C@@H](O)[C@@H](O[C@@H]2[C@@H](O)[C@H](O[C@H]3OC(CN)=CC[C@H]3NCC3CCCN3)[C@@H](N)C[C@H]2NC(=O)[C@@H](O)CCN)OC[C@]1(C)O (stereo partly drawn) [Example 85, 2′-(Methyl-pyrrolidin-2-yl)-1-(4-amino-2(S)-hydroxy-butyryl)-sisomicin]	–	–	–	–	1 to 16 µg/mL (≈ 1.58 to 25.3 µM)	< 1 µg/mL
CNCC(=O)N[C@@H]1CC=C(CN)O[C@@H]1O[C@H]1[C@H](O)[C@@H](O[C@H]2OC[C@](C)(O)[C@H](NC)[C@H]2O)[C@H](NC(=O)[C@@H](O)CCN)C[C@@H]1N [Example 86, 2′-(N-Methyl-amino-acetyl)-1-(4-amino-2(S)-hydroxy-butyryl)-sisomicin]	–	–	–	–	1 to 16 µg/mL (≈ 1.61 to 25.8 µM)	1 to 16 µg/mL (≈ 1.61 to 25.8 µM)
CN[C@@H]1[C@@H](O)[C@@H](O[C@@H]2[C@@H](O)[C@H](O[C@H]3OC(CN)=CC[C@H]3NC(=O)CN)[C@@H](N)C[C@H]2NC(=O)[C@@H](O)CCN)OC[C@]1(C)O [Example 87, 2′-(2-Amino-acetyl)-1-(4-amino-2(S)-hydroxy-butyryl)-sisomicin]	–	–	–	–	1 to 16 µg/mL (≈ 1.65 to 26.4 µM)	1 to 16 µg/mL (≈ 1.65 to 26.4 µM)
CN[C@@H]1[C@@H](O)[C@@H](O[C@@H]2[C@@H](O)[C@H](O[C@H]3OC(CN)=CC[C@H]3NC(=O)C(C)N)[C@@H](N)C[C@H]2NC(=O)[C@@H](O)CCN)OC[C@]1(C)O (stereo partly drawn) [Example 88, 2′-(2-Amino-propionyl)-1-(4-amino-2(S)-hydroxy-butyryl)-sisomicin]	–	–	–	–	1 to 16 µg/mL (≈ 1.61 to 25.8 µM)	1 to 16 µg/mL (≈ 1.61 to 25.8 µM)
CN[C@@H]1[C@@H](O)[C@@H](O[C@@H]2[C@@H](O)[C@H](O[C@H]3OC(CN)=CC[C@H]3NC(=O)C(O)CN)[C@@H](N)C[C@H]2NC(=O)[C@@H](O)CCN)OC[C@]1(C)O (stereo partly drawn) [Example 89, 2′-(3-Amino-2-hydroxy-propionyl)-1-(4-amino-2(S)-hydroxy-butyryl)-sisomicin]	–	–	–	–	1 to 16 µg/mL (≈ 1.57 to 25.2 µM)	< 1 µg/mL
CN[C@@H]1[C@@H](O)[C@@H](O[C@@H]2[C@@H](O)[C@H](O[C@H]3OC(CN)=CC[C@H]3NC(=O)C3CCCN3)[C@@H](N)C[C@H]2NC(=O)[C@@H](O)CCN)OC[C@]1(C)O (stereo partly drawn) [Example 90]	–	–	–	–	1 to 16 µg/mL (≈ 1.55 to 24.8 µM)	< 1 µg/mL
CN[C@@H]1[C@@H](O)[C@@H](O[C@@H]2[C@@H](O)[C@H](O[C@H]3OC(CN)=CC[C@H]3NCCCN)[C@@H](N)C[C@H]2NC(=O)[C@@H](O)CCN)OC[C@]1(C)O [Example 91, 2′-(3-Amino-propyl)-1-(4-amino-2(S)-hydroxy-butyryl)-sisomicin]	–	–	–	–	< 1 µg/mL	< 1 µg/mL
CN[C@@H]1[C@@H](O)[C@@H](O[C@@H]2[C@@H](O)[C@H](O[C@H]3OC(CN)=CC[C@H]3NC(=O)CC3CNCCO3)[C@@H](N)C[C@H]2NC(=O)[C@@H](O)CCN)OC[C@]1(C)O (stereo partly drawn) [Example 92, 2′-(Morpholin-2-yl-acetyl)-1-(4-amino-2(S)-hydroxy-butyryl)-sisomicin]	–	–	–	–	> 16 µg/mL	< 1 µg/mL
CN[C@@H]1[C@@H](O)[C@@H](O[C@@H]2[C@@H](O)[C@H](O[C@H]3OC(CN)=CC[C@H]3NS(=O)(=O)CCN)[C@@H](N)C[C@H]2NC(=O)[C@@H](O)CCN)OC[C@]1(C)O [Example 93, 2′-(2-Amino-ethyl-sulfonamide)-1-(4-amino-2(S)-hydroxy-butyryl)-sisomicin]	–	–	–	–	1 to 16 µg/mL (≈ 1.52 to 24.4 µM)	< 1 µg/mL
CN[C@@H]1[C@@H](O)[C@@H](O[C@@H]2[C@@H](O)[C@H](O[C@H]3OC(CN)=CC[C@H]3NCC(C)(C)CN(C)C)[C@@H](N)C[C@H]2NC(=O)[C@@H](O)CCN)OC[C@]1(C)O [Example 94, 2′-(N, N-Dimethyl-2,2-dimethyl-3-amino-propyl)-1-(4-amino-2(S)-hydroxy-butyryl)-sisomicin]	–	–	–	–	> 16 µg/mL	1 to 16 µg/mL (≈ 1.51 to 24.2 µM)
CN[C@@H]1[C@@H](O)[C@@H](O[C@@H]2[C@@H](O)[C@H](O[C@H]3OC(CN)=CC[C@H]3NC[C@H](C)N)[C@@H](N)C[C@H]2NC(=O)[C@@H](O)CCN)OC[C@]1(C)O [Example 95, 2′-(2(S)-Amino-propyl)-1-(4-amino-2(S)-hydroxy-butyryl)-sisomicin]	–	–	–	–	> 16 µg/mL	< 1 µg/mL
CN[C@@H]1[C@@H](O)[C@@H](O[C@@H]2[C@@H](O)[C@H](O[C@H]3OC(CN)=CC[C@H]3NC3CNC3)[C@@H](N)C[C@H]2NC(=O)[C@@H](O)CCN)OC[C@]1(C)O [Example 96, 2′-(Azetidin-3-yl)-1-(4-amino-2(S)-hydroxy-butyryl)-sisomicin]	1 to 16 µg/mL (≈ 1.66 to 26.5 µM)	1 to 16 µg/mL (≈ 1.66 to 26.5 µM)	< 1 µg/mL	3	–	–
CN[C@@H]1[C@@H](O)[C@@H](O[C@@H]2[C@@H](O)[C@H](O[C@H]3OC(CN)=CC[C@H]3NCC(N)CO)[C@@H](N)C[C@H]2NC(=O)[C@@H](O)CCN)OC[C@]1(C)O (stereo partly drawn) [Example 97, 2′-(2-Amino-propanol)-1-(4-amino-2(S)-hydroxy-butyryl)-sisomicin]	–	–	–	–	1 to 16 µg/mL (≈ 1.61 to 25.7 µM)	< 1 µg/mL
CN[C@@H]1[C@@H](O)[C@@H](O[C@@H]2[C@@H](O)[C@H](O[C@H]3OC(CN)=CC[C@H]3NCCO)[C@@H](N)C[C@H]2NC(=O)[C@@H](O)CCN)OC[C@]1(C)O [Example 98, 2′-(2-Hydroxy-ethyl)-1-(4-amino-2(S)-hydroxy-butyryl)-sisomicin]	–	–	–	–	1 to 16 µg/mL (≈ 1.69 to 27 µM)	1 to 16 µg/mL (≈ 1.69 to 27 µM)
CN[C@@H]1[C@@H](O)[C@@H](O[C@@H]2[C@@H](O)[C@H](O[C@H]3OC(CN)=CC[C@H]3NC(=O)C(N)CCCN)[C@@H](N)C[C@H]2NC(=O)[C@@H](O)CCN)OC[C@]1(C)O (stereo partly drawn) [Example 99, 2′-(2,5-Diamino-pentoyl)-1-(4-amino-2(S)-hydroxy-butyryl)-sisomicin]	–	–	–	–	1 to 16 µg/mL (≈ 1.51 to 24.1 µM)	1 to 16 µg/mL (≈ 1.51 to 24.1 µM)
CN[C@@H]1[C@@H](O)[C@@H](O[C@@H]2[C@@H](O)[C@H](O[C@H]3OC(CN)=CC[C@H]3NCC(O)CO)[C@@H](N)C[C@H]2NC(=O)[C@@H](O)CCN)OC[C@]1(C)O (stereo partly drawn) [Example 100, 2′-(2-Hydroxy-propanol)-1-(4-amino-2(S)-hydroxy-butyryl)-sisomicin]	–	–	–	–	> 16 µg/mL	1 to 16 µg/mL (≈ 1.61 to 25.7 µM)
CN[C@@H]1[C@@H](O)[C@@H](O[C@@H]2[C@@H](O)[C@H](O[C@H]3OC(CN)=CC[C@H]3NCC(O)CN)[C@@H](N)C[C@H]2NC(=O)[C@@H](O)CCN)OC[C@]1(C)O (stereo partly drawn) [Example 101, 2′-(2-Hydroxy-3-amino-propyl)-1-(4-amino-2(S)-hydroxy-butyryl)-sisomicin]	–	–	–	–	1 to 16 µg/mL (≈ 1.61 to 25.7 µM)	< 1 µg/mL
CN[C@@H]1[C@@H](O)[C@@H](O[C@@H]2[C@@H](O)[C@H](O[C@H]3OC(CN)=CC[C@H]3NCCCCN)[C@@H](N)C[C@H]2NC(=O)[C@@H](O)CCN)OC[C@]1(C)O [Example 102, 2′-(4-Amino-butyl)-1-(4-amino-2(S)-hydroxy-butyryl)-sisomicin]	–	–	–	–	1 to 16 µg/mL (≈ 1.61 to 25.8 µM)	< 1 µg/mL
CN[C@@H]1[C@@H](O)[C@@H](O[C@@H]2[C@@H](O)[C@H](O[C@H]3OC(CN)=CC[C@H]3NC[C@H]3C[C@H](N)C3)[C@@H](N)C[C@H]2NC(=O)[C@@H](O)CCN)OC[C@]1(C)O [Example 104, 2′-(Methyl-trans-3-amino-cyclobutyl)-1-(4-amino-2(S)-hydroxy-butyryl)-sisomicin]	–	–	–	–	1 to 16 µg/mL (≈ 1.58 to 25.3 µM)	< 1 µg/mL
CN[C@@H]1[C@@H](O)[C@@H](O[C@@H]2[C@@H](O)[C@H](O[C@H]3OC(CNC(=N)N)=CC[C@H]3NC(=N)N)[C@@H](N)C[C@H]2N)OC[C@]1(C)O [Example 105, 6′,2′-bis-Guanidinium-sisomicin]	–	–	–	–	> 16 µg/mL	> 16 µg/mL
CN[C@@H]1[C@@H](O)[C@@H](O[C@@H]2[C@@H](O)[C@H](O[C@H]3OC(CNCCO)=CC[C@H]3NC(=N)N)[C@@H](N)C[C@H]2N)OC[C@]1(C)O [Example 106, 6′-(2-Hydroxy-ethyl)-2′-guanidinium-sisomicin]	–	–	–	–	1 to 16 µg/mL (≈ 1.87 to 30 µM)	< 1 µg/mL
CN[C@@H]1[C@@H](O)[C@@H](O[C@@H]2[C@@H](O)[C@H](O[C@H]3OC(CNC[C@H]4C[C@H](N)C4)=CC[C@H]3NC(=N)N)[C@@H](N)C[C@H]2N)OC[C@]1(C)O [Example 107, 6′-(Methyl-trans-3-amino-cyclobutyl)-2′-guanidinium-sisomicin]	–	–	–	–	< 1 µg/mL	1 to 16 µg/mL (≈ 1.75 to 27.9 µM)
CNCC1=CC[C@@H](NC(=N)N)[C@@H](O[C@H]2[C@H](O)[C@@H](O[C@H]3OC[C@](C)(O)[C@H](NC)[C@H]3O)[C@H](N)C[C@@H]2N)O1 [Example 108, 6′-Methyl-2′-guanidinium-sisomicin]	–	–	–	–	1 to 16 µg/mL (≈ 1.99 to 31.8 µM)	< 1 µg/mL

From patent publication US11117915B2, “Antibacterial aminoglycoside analogs” (Cipla USA, Inc., priority 2007, dated 2021)
